Results from patent US12528761B2, “Thyromimetics” (Autobahn Therapeutics, Inc., priority 2020, dated 2026).

Columns and labels:
TRα = target: T1, TRα (Homo sapiens, UniProt P10827); assay: TR reporter-gene assay (Gal4 DBD hybrid, luciferase), TRα; type: cell-based; settings: HEK293-derived reporter cells, 24 hr treatment; read-out: TRα EC50
T1 construct: expressed in transfected cells; host or cells: HEK293
T1 sequence (P10827 1-410 isoform P10827-2): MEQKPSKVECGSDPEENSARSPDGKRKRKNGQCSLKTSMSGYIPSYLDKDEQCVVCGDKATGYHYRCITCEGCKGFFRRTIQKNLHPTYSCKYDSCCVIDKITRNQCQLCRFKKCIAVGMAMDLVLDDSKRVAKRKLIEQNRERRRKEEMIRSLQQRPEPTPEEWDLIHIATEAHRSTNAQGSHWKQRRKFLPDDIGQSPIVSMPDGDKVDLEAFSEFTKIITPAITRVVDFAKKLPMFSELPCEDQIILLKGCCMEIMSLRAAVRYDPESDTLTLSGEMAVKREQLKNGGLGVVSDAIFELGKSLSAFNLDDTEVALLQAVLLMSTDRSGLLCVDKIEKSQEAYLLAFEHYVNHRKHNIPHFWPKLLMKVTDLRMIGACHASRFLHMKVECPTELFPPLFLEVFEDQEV
Method: (§1) Compounds were tested for thyroid-hormone receptor activity using TR reporter-gene assays. Reporter cells used in the assays express a TR-receptor hybrid (either TRα or TRβ) in which the native N-terminal DNA binding domain (DBD) has been replaced with that of the yeast Gal4 DBD. The reporter gene, firefly luciferase, is functionally linked to the Gal4 upstream activation sequence (UAS). Both cell lines were derived from human embryonic kidney (HEK293).
(§2) Step 1: A suspension of reporter cells was prepared in cell recovery medium containing 10% charcoal-stripped FBS, and dispensed into assay plates. The plates were pre-incubated for 6 hours in a cell culture incubator (37° C./5% CO2/85% humidity).
(§3) These intermediate stocks were subsequently diluted directly into compound screening medium containing 10% charcoal-stripped FBS to generate “2×-concentration” treatment media (containing 0.2, 0.4 or 0.8% DMSO).
(§4) Step 3: At the end of the pre-incubation period, culture media were discarded from the assay plates, and all wells received 100 μl of compound screening medium. 100 μl of each of the previously prepared “2×-concentration” treatment media were dispensed into duplicate assay wells, thereby achieving the desired final treatment concentrations. The final concentration of DMSO in all assay wells was 0.1, 0.2 or 0.4%. Assay plates were incubated for 24 hr in a cell culture incubator (37° C./5% CO2/85% humidity).
(§5) Step 4: At the 24 h assay endpoint, treatment media were discarded and 100 µl/well of luciferase detection reagent was added. Relative luminometer units (RLUs) were quantified from each assay well.

TRβ = target: T2, TRβ (Homo sapiens, UniProt P10828); assay: TR reporter-gene assay (Gal4 DBD hybrid, luciferase), TRβ; type: cell-based; settings: for EC50: HEK293-derived reporter cells, 24 hr treatment, read-out: TRβ EC50; for T3-SI (selectivity index, EC50 (TRα)/EC50 (TRβ)): class symbols
T2 construct: expressed in transfected cells; host or cells: HEK293
T2 sequence (P10828 217-461 limits assumed): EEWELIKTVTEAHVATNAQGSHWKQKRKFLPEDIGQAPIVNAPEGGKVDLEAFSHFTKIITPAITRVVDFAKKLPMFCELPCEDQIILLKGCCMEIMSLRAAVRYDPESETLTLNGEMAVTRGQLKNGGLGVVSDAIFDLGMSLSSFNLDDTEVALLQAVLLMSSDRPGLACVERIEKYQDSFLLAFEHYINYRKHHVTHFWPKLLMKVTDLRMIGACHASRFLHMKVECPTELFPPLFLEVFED
Method: as §1, §2, §3, §4, §5

Row | Compound | EC50 (TRα) | EC50 (TRβ) | T3-SI (selectivity index, EC50 (TRα)/EC50 (TRβ)) (TRβ)
1 | CC(C)c1c(O)ccc(Cc2c(Cl)cc(C(C)C(=O)O)cc2Cl)c1F (stereo not shown) [Compound 60, 2-(3,5-dichloro-4-(2-fluoro-4-hydroxy-3-isopropylbenzyl)phenyl)propanoic acid] | 100 to 1000 nM | 100 to 1000 nM | ++ (3× < T3-SI ≤ 30×)
2 | CC(C)c1cc(Cc2c(Cl)cc(OCCCC(=O)O)cc2Cl)ccc1O [Compound 24, 4-(3,5-dichloro-4-(4-hydroxy-3-isopropylbenzyl)phenoxy)butanoic acid] | 100 to 1000 nM | 100 to 1000 nM | + (T3-SI ≤ 3×)
3 | CC(C)c1cc(Cc2c(Cl)cc(CC3NC(=O)NC3=O)cc2Cl)ccc1O (stereo not shown) [Compound 144, 5-(3,5-dichloro-4-(4-hydroxy-3-isopropylbenzyl)benzyl)imidazolidine-2,4-dione] | 100 to 1000 nM | > 1000 nM | + (T3-SI ≤ 3×)
4 | Cc1cc([S+]([O-])CC(=O)O)cc(Cl)c1Cc1ccc(O)c(C(C)C)c1 (stereo not shown) [Compound 244, 2-((3-chloro-4-(4-hydroxy-3-isopropylbenzyl)-5-methylphenyl)sulfinyl)acetic acid] | > 1000 nM | > 1000 nM | ++ (3× < T3-SI ≤ 30×)
5 | C/C(=C\c1cc(Cl)c(Cc2ccc(O)c(C(C)C)c2)c(C)c1F)C(=O)O [Compound 128, (E)-3-(5-chloro-2-fluoro-4-(4-hydroxy-3-isopropylbenzyl)-3-methylphenyl)-2-methylacrylic acid] | 10 to 100 nM | 10 to 100 nM | ++ (3× < T3-SI ≤ 30×)
6 | CC(C)c1cc(Cc2c(Cl)cc(OC(F)C(=O)O)cc2Cl)ccc1O (stereo not shown) [Compound 81, 2-(3,5-dichloro-4-(4-hydroxy-3-isopropylbenzyl)phenoxy)-2-fluoroacetic acid] | 100 to 1000 nM | 100 to 1000 nM | ++ (3× < T3-SI ≤ 30×)
7 | CC(C)c1c(O)ccc(Cc2c(Cl)cc(CC(=O)O)c(F)c2Cl)c1F [Compound 69, 2-(3,5-dichloro-2-fluoro-4-(2-fluoro-4-hydroxy-3-isopropylbenzyl)phenyl)acetic acid] | 10 to 100 nM | < 10 nM | ++ (3× < T3-SI ≤ 30×)
8 | CC(C)c1cc(Cc2c(Cl)cc(CNCC(=O)O)c(F)c2Cl)ccc1O [Compound 152, (3,5-dichloro-2-fluoro-4-(4-hydroxy-3-isopropylbenzyl)benzyl)glycine] | 100 to 1000 nM | 100 to 1000 nM | ++ (3× < T3-SI ≤ 30×)
9 | CC(C)c1cc(Cc2c(Cl)cc(C(CC(=O)O)C(=O)O)cc2Cl)ccc1O (stereo not shown) [Compound 142, 2-(3,5-dichloro-4-(4-hydroxy-3-isopropylbenzyl)phenyl)succinic acid] | > 1000 nM |  | 
10 | CC(C)c1c(O)ccc(Cc2c(Cl)cc(C(=O)O)cc2Cl)c1F [Compound 61, 3,5-dichloro-4-(2-fluoro-4-hydroxy-3-isopropylbenzyl)benzoic acid] | > 1000 nM | > 1000 nM | ++ (3× < T3-SI ≤ 30×)
11 | Cc1cc(NCC(=O)O)cc(Cl)c1Cc1ccc(O)c(C(C)C)c1 [Compound 125, (3-chloro-4-(4-hydroxy-3-isopropylbenzyl)-5-methylphenyl)glycine] | 10 to 100 nM | 10 to 100 nM | ++ (3× < T3-SI ≤ 30×)
12 | Cc1c(F)c(NCC(=O)O)cc(Cl)c1Cc1ccc(O)c(C(C)C)c1 [Compound 223, (5-chloro-2-fluoro-4-(4-hydroxy-3-isopropylbenzyl)-3-methylphenyl)glycine] | 10 to 100 nM | 10 to 100 nM | ++ (3× < T3-SI ≤ 30×)
13 | Cc1cc(CSCC(=O)O)cc(Cl)c1Cc1ccc(O)c(C(C)C)c1 [Compound 124, 2-((3-chloro-4-(4-hydroxy-3-isopropylbenzyl)-5-methylbenzyl)thio)acetic acid] | 10 to 100 nM | 10 to 100 nM | ++ (3× < T3-SI ≤ 30×)
14 | CC(Oc1cc(Cl)c(Cc2ccc(O)c(C(C)C)c2F)c(Cl)c1)C(=O)O (stereo not shown) [Compound 58, 2-(3,5-dichloro-4-(2-fluoro-4-hydroxy-3-isopropylbenzyl)phenoxy)propanoic acid] | 100 to 1000 nM | 10 to 100 nM | ++ (3× < T3-SI ≤ 30×)
15 | CC(C)c1cc(Cc2c(Cl)cc(NCC(=O)O)cc2Cl)ccc1O [Compound 20, (3,5-dichloro-4-(4-hydroxy-3-isopropylbenzyl)phenyl)glycine] | 10 to 100 nM | 10 to 100 nM | ++ (3× < T3-SI ≤ 30×)
16 | CC(C)c1c(O)ccc(Cc2c(Cl)cc(CCC(=O)O)c(F)c2Cl)c1F [Compound 71, 3-(3,5-dichloro-2-fluoro-4-(2-fluoro-4-hydroxy-3-isopropylbenzyl)phenyl)propanoic acid] | 10 to 100 nM | 10 to 100 nM | ++ (3× < T3-SI ≤ 30×)
17 | CC(c1ccc(F)cc1)c1cc(Cc2c(Cl)cc(CC(=O)O)cc2Cl)ccc1O (stereo not shown) [Compound 9, 2-(3,5-dichloro-4-(3-(1-(4-fluorophenyl)ethyl)-4-hydroxybenzyl)phenyl)acetic acid] | 10 to 100 nM | < 10 nM | ++ (3× < T3-SI ≤ 30×)
18 | CCOC(=O)/C(=C\c1cc(Cl)c(Cc2ccc(O)c(C(C)C)c2)c(Cl)c1)C(=O)O [Compound 90, 3-(3,5-dichloro-4-(4-hydroxy-3-isopropylbenzyl)phenyl)-2-(ethoxycarbonyl)acrylic acid] | > 1000 nM | > 1000 nM | ++ (3× < T3-SI ≤ 30×)
19 | C=C(Cc1cc(Cl)c(Cc2ccc(O)c(C(C)C)c2F)c(Cl)c1)C(=O)O [Compound 201, 2-(3,5-dichloro-4-(2-fluoro-4-hydroxy-3-isopropylbenzyl)benzyl)acrylic acid] | < 10 nM | < 10 nM | ++ (3× < T3-SI ≤ 30×)
20 | CC(C)c1c(O)ccc(Cc2c(Cl)cc(OCCCC(=O)O)cc2Cl)c1F [Compound 52, 4-(3,5-dichloro-4-(2-fluoro-4-hydroxy-3-isopropylbenzyl)phenoxy)butanoic acid] | 100 to 1000 nM | 100 to 1000 nM | + (T3-SI ≤ 3×)
21 | CC(C)c1c(O)ccc(Cc2c(Cl)cc(N(C)CC(=O)O)cc2Cl)c1F [Compound 140, N-(3,5-dichloro-4-(2-fluoro-4-hydroxy-3-isopropylbenzyl)phenyl)-N-methylglycine] | > 1000 nM |  | 
22 | CC(C)c1c(O)ccc(Cc2c(Cl)cc(NC(=O)C(=O)O)cc2Cl)c1F [Compound 63, 2-((3,5-dichloro-4-(2-fluoro-4-hydroxy-3-isopropylbenzyl)phenyl)amino)-2-oxoacetic acid] |  |  | ++ (3× < T3-SI ≤ 30×)
23 | CC(=O)NOCc1cc(Cl)c(Cc2ccc(O)c(C(C)C)c2F)c(Cl)c1 [Compound 211, N-((3,5-dichloro-4-(2-fluoro-4-hydroxy-3-isopropylbenzyl)benzyl)oxy)acetamide] | 100 to 1000 nM |  | 
24 | O=C(O)Cc1cc(Cl)c(Cc2ccc(O)c(C(=O)N3CCCCC3)c2)c(Cl)c1 [Compound 137, 2-(3,5-dichloro-4-(4-hydroxy-3-(piperidine-1-carbonyl)benzyl)phenyl)acetic acid] |  | > 1000 nM | 
25 | O=C(O)CNc1cc(Cl)c(Cc2ccc(O)c(-c3cc(OC(F)F)ccc3F)c2F)c(Cl)c1 [Compound 139, (3,5-dichloro-4-((5′-(difluoromethoxy)-2,2′-difluoro-6-hydroxy-[1,1′-biphenyl]-3-yl)methyl)phenyl)glycine] | 10 to 100 nM |  | 
26 | O=C(O)Cc1cc(Cl)c(Cc2ccc(O)c(CN3CCCC3=O)c2)c(Cl)c1 [Compound 138, 2-(3,5-dichloro-4-(4-hydroxy-3-((2-oxopyrrolidin-1-yl)methyl)benzyl)phenyl)acetic acid] | > 1000 nM |  | 
